Measured values as given in patent US7084141B2, “Inhibitors of macrophase migration inhibitory factor and methods for identifying the same” (Avanir Pharmaceuticals, priority 2001, dated 2006).

Columns and labels:
[1] = system: serum IL-1β; assay: Serum IL-1β after LPS challenge in mice (ELISA); type: in vivo, mouse; details: 20 mg/kg compound, LPS 5 mg/kg, four hours
Experimental: (§1) Ten 10-week-old (20±2 gram) female BALB/c mice (Charles River Laboratories, Kingston, N.Y.) were housed in a group of 5 per cage with free access to food and water and were acclimatized for at least one week prior to experimentation. On the day of experiment, mice were weighed and randomly distributed into group of 10 animals of equal mean body weight. Mice were injected i.p. with 200 μL of formulated compound 7e or buffer alone immediately before the i.p. injection of LPS (Escherichia coli 0111:B4, 10 mg/kg or 5 mg/kg body weight) and β-D-galactosamine (50 mg/kg body weight). […] Mouse serum Il-1β and TNF-α were measured by ELISA using a “mouse IL 1β immunoassay or mouse TNF-α immunoassay” kits (R&D System Minneapolis, Minn.) following manufacturer's direction. Serum MIF concentrations in mouse serum were quantified by a sandwich ELISA (ChemiKine MIF Kit, Chemicon, San Diego, Calif.). Samples were analyzed in duplicate, and results were averaged.
(§2) An initial control experiment was conducted to determine the base line levels of endogenous MIF in the murine model system (female Balb/c mice), and further to determine the rate and extent of increase in endogenous MIF following treatment with LPS (10 mg/kg). […] The level of MIF in serum was measured by HPLC as described above at 0, 2, 5 and 6 hours following LPS/galactosamine treatment. […]

[2] = system: serum TNF-α; assay: Serum TNF-α after LPS challenge in mice (ELISA); type: in vivo, mouse; details: 20 mg/kg compound, LPS 5 mg/kg, four hours
Experimental: as §1, §2

Structure (SMILES): Cn1c(=O)c([N+](=O)[O-])c(N2CCN(C(=O)c3ccco3)CC2)c2ccccc21 [compound 7e]
- serum IL-1β level [1]: reductions
- serum TNF-α level [2]: reductions
